Source: patent US20210386828A1, “METHODS FOR ENHANCING CANCER IMMUNOTHERAPY” (The Regents of the University of California, priority 2018, published 2021)

Columns and labels:
Myc-CaP cells [1] = experiment: qRT-PCR of MHC-I component mRNAs in Myc-CaP cells; format: cell-based, mouse; conditions: for effect of exogenous IFNγ on induction of MHC-I antigen presentation and processing genes by the platinoid: plus IFNγ
Source text: (§1) Each dot represents an experiment and horizontal lines denote the median.

Myc-CaP cells [2] = experiment: Surface MHC (H-2Kq) expression by flow cytometry; format: cell-based, mouse; conditions: for surface expression of H-2Kq: agent as named; for effect on the H-2Kq response to IFNγ: platinoid plus IFNγ
Source text: as §1

Myc-CaP cells [3] = system: Myc-CaP cells
Source text: CRISPR-Cas9 was used to ablate cyclic GMP-AMP synthase (cGAS, encoded by Mb21d1) and Ifnar2 (FIG. 11K).

[4] = system: Myc-CaP and TRAMP-C2 cells; experiment: RNA-seq of mouse PCa cells incubated with platinoids; format: cell-based; conditions: 2 μM, Myc-CaP
Protocol: FIGS. 1E-1G show total RNA from Myc-CaP cells incubated with indicated agents for 24 hr was subjected to RNA-seq. Top 20 hallmark gene sets were sorted by normalized enrichment score (NES). Immune-related gene sets are in blue (IFNγ signaling in light blue).
The top 20 hallmark gene sets sorted by normalized enrichment score (NES) are shown to depict the Oxali- and Cis-induced responses determined by GSEA analysis. Immune-related gene sets are colored blue (IFNγ signaling in light blue). […] Immune-related gene sets are in blue (IFNγ signaling in light blue).
To investigate how low-dose Oxali affects the PCa transcriptome, RNA sequencing (RNA-seq) was conducted on mouse PCa cells (Myc-CaP and TRAMP-C2) incubated with 2 μM of either Oxali or Cisplatin (Cis), a platinoid that, unlike Oxali, minimally enhances the response to PD-L1 blockade or ISP ablation (Pfirschke et al., 2016; Shalapour et al., 2015).

Myc-CaP cells [5] = experiment: Nuclear abundance of transcription factors (IB, flow cytometry); format: cell-based, mouse; conditions: 2 μM Oxali
Myc-CaP cells [6] = experiment: Immunoblot of IRF1 and phosphorylated STAT1; format: cell-based, mouse
Source text: Protein loading was confirmed with tubulin antibodies.
The basis for the synergy between low-dose Oxali and IFNγ was investigated. […] Given the ability of Oxali to induce Ifngr2 mRNA expression, not only in Myc-CaP cells (FIG. 2D) but also in mouse and human melanoma cell lines (FIGS. 11C and 11D), it was postulated that the synergistic activation of IRF1 and STAT1 by Oxali plus IFNγ may be due to IFNγR2 induction.

[7] = cells incubated with Oxali or Oxali+IFNγ

Row | SMILES | effect of exogenous IFNγ on induction of MHC-I antigen presentation and processing genes by the platinoid (Myc-CaP cells [1]) | surface expression of H-2Kq (Myc-CaP cells [2]) | effect on the H-2Kq response to IFNγ (Myc-CaP cells [2]) | γH2AX, marker of DNA damage (Myc-CaP cells [3]) | induction of gene set responsive to NF-κB-dependent TNF signaling [4] | nuclear abundance of p65, NF-κB, CREB1, ATF3, P-ATM and JunB (Myc-CaP cells [5]) | effect on IRF1 induction by IFNγ (Myc-CaP cells [6]; added to IFNγ) | STAT1 phosphorylation (Myc-CaP cells [6]; added to IFNγ-treated cells) | synergistic Psmb9 and Nlrc5 mRNA induction under IKKβ inhibition (Myc-CaP cells [1]; Oxali+IFNγ) | decrease in Ifngr2 mRNA (Myc-CaP cells [1]; [7]) [fold] | H-2Kq surface expression under IKKβ inhibition (Myc-CaP cells [2]; [7])
1 | N.N.O=C([O-])C1(C(=O)[O-])CCC1.[Pt+2] [Carbo, carboplatin] | not as strong as that of Oxali+IFNγ | barely induced surface H-2Kq | potentiated the response to IFNγ | – | – | – | – | – | – | – | –
2 | N.N.[Cl][Pt][Cl] [Cis, Cisplatin] | not as strong as that of Oxali+IFNγ | barely induced surface H-2Kq | potentiated the response to IFNγ | γH2AX induction | strongly induced | more transient and weaker effect | strongly potentiated | dramatically increased | – | – | –
3 | COc1c(Cl)cc2c([nH]c3cnccc32)c1NC(=O)c1cccnc1C [ML120B] | – | – | – | – | – | – | – | – | attenuated | 4 | reduced
